Data from PubChem BioAssay AID248 (DTP/NCI, 2004).
Several values for one entry are separate records, joined by “and”; a condition that tells them apart may be missing. Equal values may be shown once. Toxic doses and inconclusive results are not listed. No stated cut-off is given here; in the data, active means T/C of 150% or more; inactive means T/C below 125%.

System: L1210 leukemia ip in BDF1 mice, survival T/C
Test: NCI In Vivo Anticancer Drug Screen. Data for tumor model L1210 Leukemia (intraperitoneal) in B6D2F1 (BDF1) mice
Details: endpoint: mean survival time, higher = longer survival
Outline: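 Tumor was transplanted into mice, which were then dosed with test compound or vehicle alone. Survival was recorded for each group, and the treated figure was expressed relative to the control figure.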

[1] = dose: 100.0 mg/kg/injection, schedule: Q01DX009 (ip), vehicle: saline with Tween-80
[2] = dose: 200.0 mg/kg/injection, schedule: Q01DX009 (ip), vehicle: saline with Tween-80
[3] = dose: 400.0 mg/kg/injection, schedule: Q01DX009 (ip), vehicle: saline with Tween-80
[4] = dose: 100.0 mg/kg/injection, schedule: Q04DX003 (ip), vehicle: saline with Tween-80
[5] = dose: 100.0 mg/kg/injection, schedule: Q01DX009 (ip), vehicle: other
[6] = dose: 100.0 mg/kg/injection, schedule: Q01DX001 (ip), vehicle: saline
[7] = dose: 200.0 mg/kg/injection, schedule: Q01DX001 (ip), vehicle: saline
[8] = dose: 400.0 mg/kg/injection, schedule: Q01DX001 (ip), vehicle: saline
[9] = dose: 100.0 mg/kg/injection, schedule: Q01DX001 (ip), vehicle: carboxymethylcellulose (CMC)
[10] = dose: 200.0 mg/kg/injection, schedule: Q01DX001 (ip), vehicle: carboxymethylcellulose (CMC)

Measured: T/C

CC1C2C=CC1C(c1c3ccc(=O)cc-3oc3cc(O)ccc13)C2C(=O)O (stereo not given)
inactive: [1] 98 % of control | [2] 104 % of control | [3] 104 % of control

COc1ccc(CC(=O)O)c(OC)c1
inactive: dose: 100.0 mg/kg/injection, schedule: Q01DX007 (ip), vehicle: saline with Tween-80 98 % of control | dose: 100.0 mg/kg/injection, schedule: Q04DX003 (ip), vehicle: saline 94 % of control | dose: 200.0 mg/kg/injection, schedule: Q01DX007 (ip), vehicle: saline with Tween-80 95 % of control | dose: 200.0 mg/kg/injection, schedule: Q04DX003 (ip), vehicle: saline 99 % of control | dose: 400.0 mg/kg/injection, schedule: Q04DX003 (ip), vehicle: saline 94 % of control

CC(C)C(CN)(CCCN1CCCCC1)c1cccc2ccccc12 (stereo not given)
inactive: [4] 101 % of control

O=C(O)/C=C\c1ccccc1
inactive: [5] 100 % of control | dose: 200.0 mg/kg/injection, schedule: Q01DX009 (ip), vehicle: other 95 % of control

O=C(NC(CSC(c1ccc(Cl)cc1)c1ccc(Cl)cc1)C(=O)O)OCc1ccccc1 (stereo not given)
inactive: dose: 25.0 mg/kg/injection, schedule: Q04DX003 (ip), vehicle: Klucel (hydroxypropylcellulose) (HPC) 102 % of control | dose: 50.0 mg/kg/injection, schedule: Q04DX003 (ip), vehicle: Klucel (hydroxypropylcellulose) (HPC) 91 % of control | dose: 100.0 mg/kg/injection, schedule: Q04DX003 (ip), vehicle: Klucel (hydroxypropylcellulose) (HPC) 97 % of control

CC(=O)OCC1OC(OC(C)C)[CH]([Hg][S]Cc2ccccc2)C(OC(C)=O)C1OC(C)=O (stereo not given)
inactive: dose: 0.5 mg/kg/injection, schedule: Q01DX015 (ip), vehicle: carboxymethylcellulose (CMC) 102 % of control | dose: 1.0 mg/kg/injection, schedule: Q01DX015 (ip), vehicle: carboxymethylcellulose (CMC) 98 % of control | dose: 2.0 mg/kg/injection, schedule: Q01DX015 (ip), vehicle: carboxymethylcellulose (CMC) 104 % of control | dose: 4.0 mg/kg/injection, schedule: Q01DX015 (ip), vehicle: carboxymethylcellulose (CMC) 96 % of control and 108 % of control | dose: 8.0 mg/kg/injection, schedule: Q01DX015 (ip), vehicle: carboxymethylcellulose (CMC) 88 % of control

c1ccc(NC(c2ccccc2)C(Nc2ccccc2)(c2ccccc2)c2ccccc2)cc1 (stereo not given)
inactive: dose: 100.0 mg/kg/injection, schedule: Q04DX003 (ip), vehicle: other 89 % of control | dose: 200.0 mg/kg/injection, schedule: Q04DX003 (ip), vehicle: other 94 % of control | dose: 400.0 mg/kg/injection, schedule: Q04DX003 (ip), vehicle: other 87 % of control

CC(C)(C)c1ccc(OCCO)cc1
inactive: dose: 25.0 mg/kg/injection, schedule: Q01DX009 (ip), vehicle: other 102 % of control | dose: 50.0 mg/kg/injection, schedule: Q01DX009 (ip), vehicle: other 96 % of control | [5] 95 % of control

O=S(=O)(c1ccccc1)C1CCCC1Cl (stereo not given)
inactive: [6] 104 % of control | [7] 96 % of control | [8] 100 % of control

O=C(Nc1ccccc1)Nc1ncn[nH]1
inactive: dose: 75.0 mg/kg/injection, schedule: Q01DX001 (ip), vehicle: carboxymethylcellulose (CMC) 97 % of control | dose: 150.0 mg/kg/injection, schedule: Q01DX001 (ip), vehicle: carboxymethylcellulose (CMC) 92 % of control | dose: 300.0 mg/kg/injection, schedule: Q01DX001 (ip), vehicle: carboxymethylcellulose (CMC) 90 % of control

CC(C)(CO)CO
inactive: dose: 25.0 mg/kg/injection, schedule: Q01DX009 (ip), vehicle: saline 97 % of control | dose: 25.0 mg/kg/injection, schedule: Q04DX002 (ip), vehicle: saline 113 % of control | dose: 50.0 mg/kg/injection, schedule: Q01DX009 (ip), vehicle: saline 108 % of control | dose: 50.0 mg/kg/injection, schedule: Q04DX002 (ip), vehicle: saline 102 % of control | dose: 100.0 mg/kg/injection, schedule: Q01DX009 (ip), vehicle: saline 105 % of control | dose: 100.0 mg/kg/injection, schedule: Q04DX002 (ip), vehicle: saline 102 % of control and 103 % of control

OC12CCCCC13CCC1CCCCC1(O2)O3 (stereo not given)
inactive: [1] 98 % of control | [2] 94 % of control | [3] 102 % of control

CC(=O)Nc1ccccc1C(C)=O
inactive: [4] 92 % of control | dose: 200.0 mg/kg/injection, schedule: Q04DX003 (ip), vehicle: saline with Tween-80 93 % of control | dose: 400.0 mg/kg/injection, schedule: Q04DX003 (ip), vehicle: saline with Tween-80 93 % of control

Nc1cc(N)c(N)cc1N
inactive: dose: 9.38 mg/kg/injection, schedule: Q01DX001 (ip), vehicle: saline 95 % of control | dose: 18.75 mg/kg/injection, schedule: Q01DX001 (ip), vehicle: saline 101 % of control | dose: 37.5 mg/kg/injection, schedule: Q01DX001 (ip), vehicle: saline 111 % of control

Cc1cc(=O)n(C)c2ccccc12
inactive: dose: 50.0 mg/kg/injection, schedule: Q01DX009 (ip), vehicle: saline with Tween-80 97 % of control | [9] 93 % of control | dose: 100.0 mg/kg/injection, schedule: Q01DX009 (ip), vehicle: Klucel (hydroxypropylcellulose) (HPC) 104 % of control | [1] 101 % of control | [10] 93 % of control | dose: 200.0 mg/kg/injection, schedule: Q01DX009 (ip), vehicle: Klucel (hydroxypropylcellulose) (HPC) 93 % of control | [2] 94 % of control

C=CN1C(=O)NC(C)(CC(C)C)C1=O (stereo not given)
inactive: [1] 104 % of control | [2] 91 % of control | [3] 92 % of control

C=CC[S][Pb]([c]1ccccc1)([c]1ccccc1)[c]1ccccc1
inactive: dose: 3.0 mg/kg/injection, schedule: Q01DX009 (ip), vehicle: Klucel (hydroxypropylcellulose) (HPC) 106 % of control | dose: 6.0 mg/kg/injection, schedule: Q01DX009 (ip), vehicle: Klucel (hydroxypropylcellulose) (HPC) 90 % of control | dose: 12.5 mg/kg/injection, schedule: Q04DX002 (ip), vehicle: Klucel (hydroxypropylcellulose) (HPC) 103 % of control | dose: 25.0 mg/kg/injection, schedule: Q04DX002 (ip), vehicle: Klucel (hydroxypropylcellulose) (HPC) 91 % of control

Cn1c2c(c3ccccc31)CC(C(C)(C)C)CC2 (stereo not given)
inactive: dose: 50.0 mg/kg/injection, schedule: Q04DX002 (ip), vehicle: saline with Tween-80 107 % of control | dose: 100.0 mg/kg/injection, schedule: Q04DX002 (ip), vehicle: saline with Tween-80 100 % of control | dose: 200.0 mg/kg/injection, schedule: Q04DX002 (ip), vehicle: saline with Tween-80 97 % of control

Cn1c(=O)c2[nH]c(C3CC4C5CCC(C5)C4C3)nc2n(C)c1=O (stereo not given)
inactive: dose: 50.0 mg/kg/injection, schedule: Q01DX001 (ip), vehicle: saline 100 % of control | [6] 108 % of control | [7] 100 % of control | [8] 96 % of control

COC1OC2COC(c3ccccc3)OC2C(N=[N+]=[N-])C1O (stereo not given)
inactive: dose: 100.0 mg/kg/injection, schedule: Q01DX001 (ip), vehicle: gum acacia 100 % of control | dose: 200.0 mg/kg/injection, schedule: Q01DX001 (ip), vehicle: gum acacia 97 % of control | dose: 400.0 mg/kg/injection, schedule: Q01DX001 (ip), vehicle: gum acacia 92 % of control

Cc1ccccc1/C=N/Nc1nnc(N/N=C/c2ccccc2C)c2ccccc12
inactive: [9] 91 % of control | [10] 109 % of control | dose: 400.0 mg/kg/injection, schedule: Q01DX001 (ip), vehicle: carboxymethylcellulose (CMC) 95 % of control

O=C(O)c1ccc(CBr)c(CBr)c1
inactive: dose: 6.25 mg/kg/injection, schedule: Q04DX003 (ip), vehicle: saline with Tween-80 93 % of control | dose: 12.5 mg/kg/injection, schedule: Q04DX003 (ip), vehicle: saline with Tween-80 94 % of control
